Measured values: patent US10183941B2, “Pyrimidine or pyridopyridone compound and application thereof” (GUANGZHOU BEBETTER MEDICINE TECHNOLOGY CO., LTD., priority 2015, dated 2019)
Where two headings read alike, the source gives them in different places.

How the values were obtained:
[1] = biological target: T1, CDK6 (GST-CDK6(1-326end)) (Homo sapiens, UniProt Q00534); assay: CDK6 activity inhibition experiment (Caliper mobility shift assay); assay type: biochemical; conditions: enzyme activity inhibition; read-out: CDK6 IC50 class
T1 construct: GST-CDK6(1-326end); purchased Carna 04-107
T1 sequence (Q00534 whole entry): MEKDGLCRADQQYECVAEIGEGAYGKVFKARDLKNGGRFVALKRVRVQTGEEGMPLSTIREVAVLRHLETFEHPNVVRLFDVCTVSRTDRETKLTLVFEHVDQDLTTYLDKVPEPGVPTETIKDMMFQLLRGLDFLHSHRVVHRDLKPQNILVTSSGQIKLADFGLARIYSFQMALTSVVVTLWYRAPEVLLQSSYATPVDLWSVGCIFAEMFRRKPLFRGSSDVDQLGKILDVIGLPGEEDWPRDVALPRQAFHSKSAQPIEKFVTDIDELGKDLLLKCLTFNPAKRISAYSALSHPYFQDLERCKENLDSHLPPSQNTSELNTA
T1 sequence (P30281 whole entry partner): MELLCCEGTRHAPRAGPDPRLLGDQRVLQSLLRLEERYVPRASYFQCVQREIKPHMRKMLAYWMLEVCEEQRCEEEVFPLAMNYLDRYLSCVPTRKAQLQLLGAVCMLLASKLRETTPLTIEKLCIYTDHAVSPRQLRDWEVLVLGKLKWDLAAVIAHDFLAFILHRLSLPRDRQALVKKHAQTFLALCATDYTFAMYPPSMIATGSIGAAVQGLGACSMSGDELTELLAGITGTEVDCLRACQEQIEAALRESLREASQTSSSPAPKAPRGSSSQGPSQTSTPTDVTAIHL
Protocol: The activity of CDK6 protein kinase was measured using Caliper mobility shift assay (see J. Biomol Screen 14:31, 2009). […] 10 μl of the 2.5 times diluted CDK6 enzyme solution (GST-CDK6(1-326end); Carna, Cat. No 04-107) was added and then incubated at room temperature for 10 minutes, then 10 μl of the 2.5 times diluted substrate solution Peptide FAM-P8 (GL Biochem, Cat. No. 112396) was added. After being incubated at 28° C. for 40 minutes, 25 μl of stop solution was added to stop the reaction. Conversion rate data was read from Caliper EZ Reader II (Caliper Life Sciences). The conversion rate data was converted into inhibition rate data. […] Conversion rate data was converted into inhibition rate data according to the method described above. Inhibition rate %=(max−conversion rate)/(max−min)×100.

CDK2 = biological target: T2, CDK2 (Homo sapiens, UniProt P24941); assay: CDK2 activity inhibition experiment (Caliper mobility shift assay); assay type: biochemical; conditions: enzyme activity inhibition; read-out: CDK2 IC50 class
T2 construct: purchased Carna 04-103
Protocol: After being incubated at 28° C. for 60 minutes, 25 μl of stop solution was added to stop the reaction. Conversion rate data was read from Caliper EZ Reader II (Caliper Life Sciences). The conversion rate data was converted into inhibition rate data. […] The curve was plotted with compound concentration and inhibition rate as horizontal and vertical coordinates, and the IC50 was calculated by fitting the curve using XLFit excel add-in version 4.3.1 software. Inhibition rate %=(max-conversion rate)/(max-min)×100.

[2] = biological target: T3, CDK4 (GST-CDK4(1-303end)/GST-CycD3(1-292end)) (Homo sapiens, UniProt P11802); assay: CDK4 activity inhibition experiment (Caliper mobility shift assay); assay type: biochemical; conditions: enzyme activity inhibition; read-out: CDK4 IC50 class
T3 construct: GST-CDK4(1-303end); purchased Carna 04-105
T3 sequence (P11802 whole entry): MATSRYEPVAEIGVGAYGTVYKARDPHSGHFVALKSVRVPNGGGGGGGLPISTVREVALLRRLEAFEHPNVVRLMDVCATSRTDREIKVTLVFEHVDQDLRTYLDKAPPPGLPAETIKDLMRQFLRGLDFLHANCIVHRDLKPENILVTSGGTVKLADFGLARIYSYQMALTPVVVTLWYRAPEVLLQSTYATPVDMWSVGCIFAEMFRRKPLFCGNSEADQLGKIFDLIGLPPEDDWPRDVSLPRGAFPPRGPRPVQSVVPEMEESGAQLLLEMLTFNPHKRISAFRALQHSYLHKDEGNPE
T3 sequence (P30281 whole entry partner): as the sequence (P30281 whole entry partner) above

SW620 = assay: Tumor cell proliferation inhibition (CellTiter-Glo), SW620; assay type: cell-based; conditions: Homo sapiens, SW-620; 72 hours, 10% fetal bovine serum; read-out: SW620 IC50 class
Protocol: (§1) The content of adenosine triphosphate (ATP) was determined using the CellTiter-Glo Luminescent Cell Viability Assay Kit (Promega, Madison, Wis.) to evaluate cell viability. Tumor cell lines (SW620, ZR-75-1, MDA-MB-231) were purchased from the Cell Resource Center of IBS, Fudan University, Shanghai and the American Type Culture Collection (ATCC). The cell density was determined using Scepter automated cell counter (Millipore # PHCC00000) after the cells were digested with pancreatin in cell culture dishes and resuspended in DPBS medium. The cells were diluted to a solution of 44,000 cells per ml. The cell solution of which density was adjusted was added into the cell assay plate at 90 microliters per well. The well plate was incubated in an incubator with 5% CO2 at 37° C. for 24 hours and then added with test compounds with different concentrations. The cells were incubated with the compounds in the presence of 10% fetal bovine serum for 72 hours. ATP content was assayed using the CellTiter-Glo® Luminescent Cell Viability Assay kit (see instructions of manufacturer) to assess cell growth inhibition. Briefly, 30 μl of CellTiter-Glo® reagent was added to each well, rocked for 10 minutes to induce cell lysis, and […] were detected and recorded with Fluoroskan Ascent FL (Thermo). The maximum signal value was obtained from the cells treated with dimethyl sulfoxide for 72 hours. The minimum signal value was obtained from the separate culture medium (cell number was zero). Inhibition rate %=(maximum signal value−compound signal value)/(maximum signal value−minimum signal value)×100. Data was processed using GraphPad Prism V5.0 (GraphPad Software, San Diego, Calif.) software. IC50 values were calculated by fitting S-shaped dose-response curves.

ZR-75-1 = assay: Tumor cell proliferation inhibition (CellTiter-Glo), ZR-75-1; assay type: cell-based; conditions: Homo sapiens, 72 hours, 10% fetal bovine serum, read-out: ZR-75-1 IC50 class
Protocol: as §1

MDA-MB-231 = assay: Tumor cell proliferation inhibition (CellTiter-Glo), MDA-MB-231; assay type: cell-based; conditions: Homo sapiens, 72 hours, 10% fetal bovine serum, read-out: MDA-MB-231 IC50 class
Protocol: as §1

[3] = system: locally advanced or metastatic breast cancer, ER+ / HER2−; conditions: cited from earlier work
[4] = system: MDA-MB-231 breast cancer cells; assay: Cell cycle inhibition experiment (PI staining, flow cytometry); assay type: cell-based; conditions: Homo sapiens, MDA-MB-231 cells, 24 h
Text: The cell cycle and apoptosis assay kit (Beyotime, C1052) used in this experiment is an assay kit for analyzing the cell cycle and apoptosis using the classic method of Propidium staining (PI staining). Propidium (PI) is a double-stranded DNA fluorescent dye. The combination of propidium and double-stranded DNA can produce fluorescence, and fluorescence intensity is proportional to the amount of double-stranded DNA. After DNA in cells is stained with propidium, the DNA content of the cells can be measured by flow cytometry, and then the cell cycle and apoptosis can be analyzed according to the distribution of DNA content.
MDA-MB-231 cells were seeded into a 6-well plate at 3×10^5 per well and cultured for 24 hours.
In tumor cell cycle, the binding of CDK4 and CDK6 to cyclin D promotes G1 phase into S phase. CDK4/6 inhibitor selectively arrests the G1 phase of tumor cells into S phase. The detection results of the cell cycle of MDA-MB-231 breast cancer cells by flow cytometry indicate that the CDK4/6 inhibitor compounds provided by the present disclosure stop the growth of G1 phase cells and reduce S phase cells in a concentration-dependent manner, as shown in the following table.

[5] = system: phosphorylation of Rb at Ser780 in MDA-MB-231 breast cancer cells; assay: Western Blot experiment, Rb phosphorylation; assay type: cell-based; conditions: MDA-MB-231 cells, 16 hours incubation, FIG. 1
Protocol: MDA-MB-231 cells were grown in monolayer culture. […] The protein concentration was determined by the Branfor method. After being added with a loading buffer (Beyotime, # P0015L), the supernatant was boiled at 100° C. for 8 min, and the protein was separated by 8%-10% SDS-PAGE electrophoresis and then transferred to the PVDF membrane, and the membrane was blocked with 5% skimmed milk powder for 45 min, and then the cells were incubated overnight at 4° C. with primary antibody β-actin (CST, #4970), Rb (D20) Rabbit mAb (CST, #9313), Phospho-Rb(Ser780)(D59B7) Rabbit mAb (CST, #8180), and then the membrane was washed with TBST solution for 3×10 min. The cells were incubated in the dark at room temperature for 2 h with the fluorescent secondary antibody IRDye@680CW Goat (polyclonal) Anti-Rabbit 1gG (H+L), Highly Cross Adsorbed (LI-COR, #926-68071), and then the membrane was washed under the same condition above. Finally, the membrane was detected and imaged on a LI-COR Odyssey Infrared Fluorescence Scanning System, and the results are shown in FIG. 1.
CDK4/6 can make Rb protein lose the arrest on cell cycle by phosphorylating the tumor suppressor protein Rb protein. CDK4/6 inhibitor can prevent the inactivation of tumor suppressor protein Rb and thereby restore the arrest of Rb on cell cycle.

[6] = Pharmacokinetic (PK) experiment in rats; assay type: in vivo; conditions: male, SD, plasma, po, rat, intragastric 20 mg/kg; for AUC(0-t): 0-24 hour
Protocol: Male SD rats weighing 300-350 g were fasted overnight prior to the experiment. The compounds to be tested were dissolved in 30% sulfobutyl ether-β-cyclodextrin (SBE-β-CD) and the rats were intragastric administration at 20 mg/kg. The blood was taken from the tails of the rats at 15 min, 30 min, and 1, 2, 3, 4, 6, 8 and 24 hours after administration, with about 0.3 ml of blood at each time point, and then the blood was placed in a centrifuge tube containing K2-EDTA, and centrifuged (2,000 g, 10 min, 4° C.) to take the plasma which was then stored in an ultra-low temperature freezer at −80° C. 50 μL, of plasma sample was mixed with 5 μL of internal standard (IS) and extracted with ethyl acetate. The residue was redissolved in acetonitrile after vacuum drying. The sample was filtered and injected into LC-MS/MS for analysis to determine the concentration of the compounds to be tested.
In the table: Tmax refers to the peak time, Cmax refers to the maximum plasma drug concentration, T1/2 is the half-life, AUClast refers to the area under the 0-24 hour time-concentration curve, AUCinf refers to the area under the 0-Inf time-concentration curve.

[7] = system: MDA-MB-435 breast cancer cells; assay: Pharmacodynamic experiment, MDA-MB-435 xenograft; assay type: in vivo, mouse
Protocol: MDA-MB-435 breast cancer cells were obtained from Shanghai Cell Bank of Chinese Academy of Sciences. Cryopreserved cells were thawed in a 37° C. water bath and then placed in RPMI 1640 medium supplemented with 10% fetal bovine serum (FBS), 1% insulin (Bioman Biotech, Shanghai) and incubated in 5% CO2 of Tissue Culture Incubator. […] The sign of successful transplantation was the formation of a round bulging lump under the skin. Tumor size can be measured approximately two weeks after implantation. The tumor size was measured by a caliper.

[8] = cited from earlier work

SMILES | IC50 [1] [nM] | IC50 (CDK2) [nM] | IC50 [2] [nM] | IC50 (SW620) [nM] | IC50 (ZR-75-1) [nM] | IC50 (MDA-MB-231) [nM] | IC50 ([4]; read-out: IC50 (nM) G1 arrest) [nM] | IC50 ([4]; read-out: IC50 (nM) S decrease) [nM] | also measured
CC(=O)c1c(C)c2cnc(Nc3ccc(C4CCN(CCS(=O)(=O)c5ccc(Cl)cc5)CC4)cn3)nc2n(C2CCCC2)c1=O [Compound 4, 6-acetyl-2-((5-(1-(2-((4-chlorophenyl)sulfonyl)ethyl)piperidin-4-yl)pyridin-2-yl)amino)-8-cyclopentyl-5-methylpyrido[2,3-d]pyrimidin-7(8H)-one] | > 500 |  |  |  |  |  |  |  | 
CC(=O)c1c(C)c2cnc(Nc3ccc(C4CCCN(CCS(C)(=O)=O)C4)cn3)nc2n(C2CCCC2)c1=O (stereo not shown) [Compound 5, 6-acetyl-8-cyclopentyl-5-methyl-2-((5-(1-(2-(methylsulfonyl)ethyl)piperidin-3-yl)pyridin-2-yl)amino)pyrido[2,3-d]pyrimidin-7(8H)-one] | 10 to 50 | > 500 | 10 to 50 | 100 to 500 | 100 to 500 | 500 to 1000 |  |  | 
CC(=O)c1c(C)c2cnc(Nc3ccc(C4CCN(CCS(C)(=O)=O)CC4)cn3)cc2n(C2CCCC2)c1=O [Compound 13, 3-acetyl-1-cyclopentyl-4-methyl-7-((5-(1-(2-(methylsulfonyl)ethyl)piperidin-4-yl)pyridin-2-yl)amino)-1,6-naphthyridin-2(1H)-one] | 10 to 50 | > 500 | < 10 | 1000 to 5000 | 500 to 1000 | 500 to 1000 |  |  | 
N#Cc1ccc(C(c2ccc(C#N)cc2)n2cncn2)cc1 [letrozole] |  |  |  |  |  |  |  |  | progression-free survival (PFS) ([3]; phase II, postmenopausal women, ER+ HER2− breast cancer, p=0.0004): 10.2 months
CC(=O)c1c(C)c2cnc(Nc3ccc(C4CCN(CCCS(C)(=O)=O)CC4)cn3)nc2n(C2CCCC2)c1=O [Compound 2, 6-acetyl-8-cyclopentyl-5-methyl-2-((5-(1-(3-(methylsulfonyl)propyl)piperidin-4-yl)pyridin-2-yl)amino)pyrido[2,3-d]pyrimidin-7(8H)-one] | 10 to 50 | > 500 | < 10 | 100 to 500 | ≤ 100 | 100 to 500 | 39.8 | 40.9 | phosphorylation of Rb at Ser780 site [5]: effectively reduce; Cmax [6]: 860 ng/mL; Tmax [6]: 2.7 h; half-life [6]: 5 h; AUC(0-t) [6]: 11200 ng·h/mL; AUC(0-inf) [6]: 11700 ng·h/mL

Further lines, with some results ahead:

IC50 [1] [nM] | IC50 (CDK2) [nM] | IC50 [2] [nM] | IC50 (SW620) [nM] | IC50 (ZR-75-1) [nM] | IC50 (MDA-MB-231) [nM] | IC50 ([4]; read-out: IC50 (nM) G1 arrest) [nM] | IC50 ([4]; read-out: IC50 (nM) S decrease) [nM] | SMILES | also measured
 |  |  | 100 to 500 | ≤ 100 | 100 to 500 | 35.2 ± 8.9 | 42.9 ± 13.5 | CCN1CCN(Cc2ccc(Nc3ncc(F)c(-c4cc(F)c5nc(C)n(C(C)C)c5c4)n3)nc2)CC1 [LY2835219, reference compound] | 
 |  |  | 100 to 500 | 100 to 500 | 100 to 500 | 42.4 ± 16.1 | 45.1 ± 10.9 | CC(=O)c1c(C)c2cnc(Nc3ccc(N4CCNCC4)cn3)nc2n(C2CCCC2)c1=O [PD-0332991, Palbociclib, reference compound] | Cmax [6]: 213 ng/mL; Tmax [6]: 1.2 h; half-life [6]: 10 h; AUC(0-t) [6]: 1250 ng·h/mL; AUC(0-inf) [6]: 1400 ng·h/mL; average body weight of the mice ([7]; after 6 days of oral 150 mg/kg once daily): significantly reduced; T/C value ([7]; after 14 days of oral administration, PD-0332991 150 then 100 mg/kg once daily, Compound 1 75 mg/kg twice daily): 41%; T/C value ([7]; day 6 after discontinuation (D20)): 35%; elimination half-life (Average) ([8]; Phase I clinical): 25.9 h; AUC ([8]; Phase I, single oral dose of 25-150 mg): 58 to 641 ng·h/mL; side effects ([3]; clinical, Pfizer Press Release): leukocyte reduction and fatigue
 |  |  | 500 to 1000 | ≤ 100 | 1000 to 5000 |  |  | CN(C)C(=O)c1cc2cnc(Nc3ccc(N4CCNCC4)cn3)nc2n1C1CCCC1 [LEE011, reference compound] | 
